Data: ChEMBL document CHEMBL1833868, “Design and synthesis of resveratrol-based nitrovinylstilbenes as antimitotic agents” (J Med Chem, 2011)
Calls of active or inactive are those of the source. No cut-off for these calls is given here.

Key:
MCF7 = assay: Antiproliferative activity against human MCF7 cells assessed as cell viability after 48 hrs by SRB assay; type: functional, cell-based; conditions: MCF7, 48 h
Bos taurus = species: Bos taurus; assay: Inhibition of bovine tubulin polymerization at 3 uM after 1 hr by fluorescence assay relative to control
A549 = assay: Antiproliferative activity against human A549 cells assessed as cell viability after 48 hrs by SRB assay; type: functional, cell-based; conditions: A549, 48 h
HeLa [1] = assay: Antiproliferative activity against human HeLa cells assessed as cell viability after 48 hrs by SRB assay; type: functional, cell-based
HeLa [2] = assay: Induction of cell cycle arrest in human HeLa cells assessed as accumulation of cells in G2/M phase at 5 uM after 24 hrs by flow cytometry analysis (reference value: 21.29%); type: functional
[3] = Inhibition of bovine tubulin assembly after 1 hr by fluorescence assay; set-up: species or system Bos taurus
HeLa [4] = assay: Induction of cell cycle arrest in human HeLa cells assessed as accumulation of cells in S phase at 5 uM after 24 hrs by flow cytometry analysis (reference value: 9.28%); type: functional
HeLa [5] = assay: Induction of cell cycle arrest in human HeLa cells assessed as accumulation of cells in G1 phase at 5 uM after 24 hrs by flow cytometry analysis (reference value: 69.43%); type: functional
HeLa [6] = assay: Induction of apoptosis in human HeLa cells assessed as increase in caspase 3 activity at 5 uM after 24 hrs by fluorimetry relative to control; type: functional
HeLa [7] = assay: Effect on nuclear condensation in human HeLa cells assessed as incomplete chromosome formation at 5 uM after 24 hrs by indirect immunofluorescence analysis; type: functional, cell-based
HeLa [8] = assay: Effect on formation of bipolar spindles in human HeLa cells at 5 uM after 24 hrs by indirect immunofluorescence analysis; type: functional, cell-based
HeLa [9] = assay: Antimitotic activity in human HeLa cells assessed as disruption of microtubule network at 5 uM after 24 hrs by indirect immunofluorescence analysis; type: functional, cell-based
HeLa [10] = assay: Induction of apoptosis in human HeLa cells assessed as increase in caspase 3 activity at 40 uM after 24 hrs by fluorimetry relative to control; type: functional
HeLa [11] = assay: Induction of apoptosis in human HeLa cells assessed as increase in caspase 3 activity at 5 uM after 24 hrs by fluorimetry; type: functional, cell-based

Compound: COc1cc(/C=C/[N+](=O)[O-])c(/C=C/c2ccc(Br)cc2)c(OC)c1OC
- IC50 (MCF7): 14.6 µM
- inhibition (Bos taurus): 28%
- IC50 (A549): 41 µM
- IC50 (HeLa [1]; hela): Not Active

Compound: COc1cc(/C=C/[N+](=O)[O-])c(/C=C/c2ccc3c(c2)OCO3)c(OC)c1OC
- IC50 (MCF7): 19.2 µM
- Activity (HeLa [2]): 50.56%
- IC50 [3]: 8.02 µM
- inhibition (Bos taurus): 51%
- IC50 (A549): 16.3 µM
- Activity (HeLa [4]): 22.3%
- IC50 (HeLa [1]; Homo sapiens, HeLa, 48 h): 5.4 µM
- Activity (HeLa [5]): 27.14%

Compound: COc1ccc(/C=C/c2c(/C=C/[N+](=O)[O-])cc(OC)c(OC)c2OC)cc1
- IC50 (MCF7): 21.4 µM
- Activity (HeLa [2]): 60.4%
- IC50 [3]: 4.9 µM
- fold change (FC) (HeLa [6]): 10
- Activity (HeLa [7]): Active
- inhibition (Bos taurus): 59%
- IC50 (A549): 40.4 µM
- Activity (HeLa [4]): 22.96%
- Activity (HeLa [8]): inactive
- IC50 (HeLa [1]; Homo sapiens, HeLa, 48 h): 7.8 µM
- Activity (HeLa [5]): 16.64%
- Activity (HeLa [9]): Active

Compound: COc1cc(/C=C/c2c(/C=C/[N+](=O)[O-])cc(OC)c(OC)c2OC)cc(OC)c1
- IC50 (MCF7): 19.2 µM
- inhibition (Bos taurus): 27%
- IC50 (A549): 15 µM
- IC50 (HeLa [1]; Homo sapiens, HeLa, 48 h): 10 µM

Compound: COc1cc(/C=C/[N+](=O)[O-])c(/C=C/c2ccccc2)c(OC)c1OC
- IC50 (MCF7): 10.9 µM
- inhibition (Bos taurus): 31%
- IC50 (A549): 28.9 µM
- IC50 (HeLa [1]; Homo sapiens, HeLa, 48 h): 5.42 µM

Compound: COc1cc(/C=C/[N+](=O)[O-])c(/C=C/c2ccc(-c3ccccc3)cc2)c(OC)c1OC
- IC50 (MCF7): 7.2 µM
- inhibition (Bos taurus): 28%
- IC50 (A549): 44.4 µM
- IC50 (HeLa [1]; hela): Not Active

Compound: COc1cc2c(c(OC)c1OC)-c1ccc(OC)c(=O)cc1[C@@H](NC(C)=O)CC2 [COLCHICINE]
- IC50 [3]: 1.96 µM
- inhibition (Bos taurus): 58%

Compound: COc1cc(/C=C/[N+](=O)[O-])c(/C=C/c2ccc(F)cc2)c(OC)c1OC
- IC50 (MCF7): 19 µM
- inhibition (Bos taurus): 31%
- IC50 (A549): 35.9 µM
- IC50 (HeLa [1]; Homo sapiens, HeLa, 48 h): 12.4 µM

Compound: COc1cc(/C=C/[N+](=O)[O-])c(/C=C/c2ccc(C)cc2)c(OC)c1OC
- IC50 (MCF7): 42.5 µM
- Activity (HeLa [2]): 66.43%
- IC50 [3]: 4.27 µM
- fold change (FC) (HeLa [6]): 12
- Activity (HeLa [7]): Active
- inhibition (Bos taurus): 62%
- IC50 (A549): 19 µM
- Activity (HeLa [4]): 23.91%
- Activity (HeLa [8]): inactive
- IC50 (HeLa [1]; Homo sapiens, HeLa, 48 h): 4.4 µM
- Activity (HeLa [5]): 9.66%
- Activity (HeLa [9]): Active

Compound: COc1cc(/C=C/[N+](=O)[O-])c(/C=C/c2ccc(Cl)cc2)c(OC)c1OC
- IC50 (MCF7): 25.7 µM
- inhibition (Bos taurus): 33%
- IC50 (A549): 22.8 µM
- IC50 (HeLa [1]; hela): Not Active

Compound: Oc1ccc(/C=C/c2cc(O)cc(O)c2)cc1 [RESVERATROL]
- IC50 (MCF7): 79.1 µM
- fold change (FC) (HeLa [10]): 5
- IC50 (A549): 44.7 µM
- IC50 (HeLa [1]; Homo sapiens, HeLa, 48 h): 22.5 µM
- Activity (HeLa [11]): inactive

Compound: COc1cc(/C=C/[N+](=O)[O-])c(/C=C/c2ccc3ccccc3c2)c(OC)c1OC
- IC50 (MCF7): 16.7 µM
- inhibition (Bos taurus): 32%
- IC50 (A549): 59.5 µM
- IC50 (HeLa [1]; Homo sapiens, HeLa, 48 h): 189 µM

Compound: COc1cc(/C=C/c2c(/C=C/[N+](=O)[O-])cc(OC)c(OC)c2OC)cc(OC)c1OC
- IC50 (MCF7): 13.2 µM
- inhibition (Bos taurus): 20%
- IC50 (A549): 27.1 µM
- IC50 (HeLa [1]; hela): Not Active
